pIC50: −log10 of the molar value.
These molecules were tested against T1, human Werner helicase (Uniprot Q14191, amino acids 517-1235 with L1074F point mutation), WRN-BV08 (Homo sapiens, UniProt Q14191, L1074F) (assay: WRN (BV08) ADP-Glo Assay).
T1 construct: Uniprot Q14191, amino acids 517-1235 with L1074F point mutation; TEV cleavable 8xHis tag (C, cleaved yes); made in house; host or cells: Sf9 insect cells (baculovirus, pFastBac)
Assay type: biochemical
Experimental: DNA duplex was synthesized at BGI (Shenzhen, China) and was composed of strand 1 with the sequence 5′-[…]-3′ (SEQ ID NO.: 1) and strand 2 with the sequence 5′-[…]-3′ (SEQ ID NO.: 2). DNA strands were annealed by heating to 95 °C for 5 minutes followed by slow cooling to room temperature. […] DMSO (0.1 μl) was added to columns 12, rows A-H and column 24, rows I-P for the maximum signal control.
Where RLU=relative luminescence units, sample=signal in sample well, and MIN and MAX are the respective minimum and maximum signal controls. • Four-parameter IC50 fit equation:
Y=Bottom+(Top−Bottom)/(1+(IC50/X)^Hill Slope)
Where top and bottom are normally allowed to float but may be fixed at 100 or 0 respectively in a 3-parameter fit. Y is the % inhibition and X is the compound concentration.
Molecular Biology and virus production. […] The baculovirus from the expression plasmid WRN-BV08 was generated from transfection and amplification following the manufacturer's instructions.
Sf9 cells grown in SF900II media were infected with 1:200 WRN-BV08 P2 virus and incubated for protein expression for 72 h at 27 °C. The WRN protein was purified using the following protocol. The cell pellets were thawed and resuspended in buffer A (50 mM Tris, pH 7.5, 500 mM NaCl, 1 mM TCEP, 10% Glycerol) supplemented with 0.5% CHAPS, 1 mM [COMPOUND LEFT OUT], 1 μg/ml Leupeptin, 1 μg/ml Pepstatin, and the Pierce Universal Nuclease and cocktail tablet. Cleared lysates were loaded onto a Ni Sepharose™ excel column and washed with buffer A and bound protein was eluted with buffer A supplemented with 300 mM imidazole. The eluted protein was dialyzed against buffer A and digested by His-tagged TEV (1:5 ratio) overnight at 4 °C. […] Untagged WRN protein was eluted from the column with buffer A supplemented with 20 mM imidazole, dialyzed overnight into buffer B (50 mM Tris, pH 7.5, 1 mM TCEP, 10% Glycerol) supplemented with 150 mM NaCl and loaded onto a Heparin column. Proteins were eluted with a step gradient of buffer B supplemented with 150 mM, 200 mM, 300 mM and 500 mM NaCl.

T1 sequence (Q14191 517-1235 L1074F): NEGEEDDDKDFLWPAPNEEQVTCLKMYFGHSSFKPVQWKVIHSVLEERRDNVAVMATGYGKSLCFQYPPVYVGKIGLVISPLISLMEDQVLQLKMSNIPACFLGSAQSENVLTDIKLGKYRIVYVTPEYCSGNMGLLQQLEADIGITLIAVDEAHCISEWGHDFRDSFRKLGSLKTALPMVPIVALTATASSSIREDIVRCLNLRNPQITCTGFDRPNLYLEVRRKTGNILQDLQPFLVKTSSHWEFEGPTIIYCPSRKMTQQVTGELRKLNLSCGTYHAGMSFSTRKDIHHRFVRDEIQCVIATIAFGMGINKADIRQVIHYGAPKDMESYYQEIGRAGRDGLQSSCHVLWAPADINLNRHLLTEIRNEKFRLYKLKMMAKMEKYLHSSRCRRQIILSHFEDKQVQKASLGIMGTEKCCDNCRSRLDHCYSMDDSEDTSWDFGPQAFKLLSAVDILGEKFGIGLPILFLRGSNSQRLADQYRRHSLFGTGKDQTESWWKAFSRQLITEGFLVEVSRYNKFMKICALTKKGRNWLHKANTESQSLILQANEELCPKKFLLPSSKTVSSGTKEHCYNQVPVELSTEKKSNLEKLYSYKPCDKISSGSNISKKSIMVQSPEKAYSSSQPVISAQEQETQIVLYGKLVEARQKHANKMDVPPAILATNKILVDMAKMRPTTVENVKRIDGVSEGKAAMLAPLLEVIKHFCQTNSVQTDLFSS

| SMILES | pIC50 |
| --- | --- |
| COc1cc(-c2nc3n(CC(=O)Nc4ccc(C(F)(F)F)cc4Cl)cc(C4CCN(C(=O)c5ncnc(C)c5O)CC4)c(=O)n3n2)ccn1 [Compound I-81, N-[2-chloro-4-(trifluoromethyl)phenyl]-2-{6-[1-(5-hydroxy-6-methylpyrimidine-4-carbonyl)piperidin-4-yl]-2-(2-methoxypyridin-4-yl)-7-oxo-4H,7H-[1,2,4]triazolo[1,5-a]pyrimidin-4-yl}acetamide] | 6.30 to 7.00 |
| CCc1c(N2CCN(C(=O)c3cnn(C)c3)CC2)c(=O)n2nc(-c3cc(OC)ncc3F)nc2n1CC(=O)Nc1ccc(C(F)(F)F)cc1Cl [Compound I-72, N-[2-chloro-4-(trifluoromethyl)phenyl]-2-[5-ethyl-2-(5-fluoro-2-methoxypyridin-4-yl)-6-[4-(1-methyl-1H-pyrazole-4-carbonyl)piperazin-1-yl]-7-oxo-4H,7H-[1,2,4]triazolo[1,5-a]pyrimidin-4-yl]acetamide] | 7.30 to 8.30 |
| CCc1c(N2CCN(C(=O)c3nnn[nH]3)CC2)c(=O)n2nc(C3=CCOCC3)nc2n1CC(=O)Nc1ccc(C(F)(F)F)cc1Cl [Compound I-17, N-[2-chloro-4-(trifluoromethyl)phenyl]-2-[2-(3,6-dihydro-2H-pyran-4-yl)-5-ethyl-7-oxo-6-[4-(1H-1,2,3,4-tetrazole-5-carbonyl)piperazin-1-yl]-4H,7H-[1,2,4]triazolo[1,5-a]pyrimidin-4-yl]acetamide] | 7.30 to 8.30 |
| CCc1c(N2CCN(C(=O)c3cnn(C)c3)CC2)c(=O)n2nc(-c3nccc(OC)n3)nc2n1CC(=O)Nc1ccc(C(F)(F)F)cc1Cl [Compound I-70, N-[2-chloro-4-(trifluoromethyl)phenyl]-2-[5-ethyl-2-(4-methoxypyrimidin-2-yl)-6-[4-(1-methyl-1H-pyrazole-4-carbonyl)piperazin-1-yl]-7-oxo-4H,7H-[1,2,4]triazolo[1,5-a]pyrimidin-4-yl]acetamide] | 6.30 to 7.00 |
| CCc1c(N2CCN(C(=O)c3ncc(C)s3)CC2)c(=O)n2nc(-c3ccnc(OC)c3)nc2n1CC(=O)Nc1ccc(C(F)(F)F)cc1Cl [Compound I-58, N-[2-chloro-4-(trifluoromethyl)phenyl]-2-[5-ethyl-2-(2-methoxypyridin-4-yl)-6-[4-(5-methyl-1,3-thiazole-2-carbonyl)piperazin-1-yl]-7-oxo-4H,7H-[1,2,4]triazolo[1,5-a]pyrimidin-4-yl]acetamide] | 7.00 to 7.30 |
| CCc1c(N2CCN(C(=O)c3ncnc(C)c3O)CC2)c(=O)n2nc(-c3ccc(OC)nc3)nc2n1CC(=O)Nc1ccc(C(F)(F)F)cc1Cl [Compound I-22, N-[2-chloro-4-(trifluoromethyl)phenyl]-2-{5-ethyl-6-[4-(5-hydroxy-6-methylpyrimidine-4-carbonyl)piperazin-1-yl]-2-(6-methoxypyridin-3-yl)-7-oxo-4H,7H-[1,2,4]triazolo[1,5-a]pyrimidin-4-yl}acetamide] | 7.30 to 8.30 |
| CCc1c(N2CCN(C(=O)c3cnn(C)c3)CC2)c(=O)n2nc(-c3ccnc(OC)c3)nc2n1CC(=O)Nc1ccc(C(F)(F)F)cc1Cl [Compound I-48, N-[2-chloro-4-(trifluoromethyl)phenyl]-2-[5-ethyl-2-(2-methoxypyridin-4-yl)-6-[4-(1-methyl-1H-pyrazole-4-carbonyl)piperazin-1-yl]-7-oxo-4H,7H-[1,2,4]triazolo[1,5-a]pyrimidin-4-yl]acetamide] | > 8.30 |
| CCc1c(N2CCN(C(=O)c3c(O)noc3C)CC2)c(=O)n2nc(C3=CCOCC3)nc2n1CC(=O)Nc1ccc(C(F)(F)F)cc1Cl [Compound I-28, N-[2-chloro-4-(trifluoromethyl)phenyl]-2-[2-(3,6-dihydro-2H-pyran-4-yl)-5-ethyl-6-[4-(3-hydroxy-5-methyl-1,2-oxazole-4-carbonyl)piperazin-1-yl]-7-oxo-4H,7H-[1,2,4]triazolo[1,5-a]pyrimidin-4-yl]acetamide] | > 8.30 |
| CCc1c(N2CCN(C(=O)c3ncnc(C)c3O)CC2)c(=O)n2nc(-c3ccnc(OC)c3F)nc2n1CC(=O)Nc1ccc(C(F)(F)F)cc1Cl [Compound I-45, N-[2-chloro-4-(trifluoromethyl)phenyl]-2-[5-ethyl-2-(3-fluoro-2-methoxypyridin-4-yl)-6-[4-(5-hydroxy-6-methylpyrimidine-4-carbonyl)piperazin-1-yl]-7-oxo-4H,7H-[1,2,4]triazolo[1,5-a]pyrimidin-4-yl]acetamide] | 7.30 to 8.30 |

The remaining lines, values ahead:

| pIC50 | SMILES |
| --- | --- |
| 7.30 to 8.30 | CCc1c(N2CCN(C(=O)c3ccn(C)n3)CC2)c(=O)n2nc(C3=CCOCC3)nc2n1CC(=O)Nc1ccc(C(F)(F)F)cc1Cl [Compound I-30, N-[2-chloro-4-(trifluoromethyl)phenyl]-2-[2-(3,6-dihydro-2H-pyran-4-yl)-5-ethyl-6-[4-(1-methyl-1H-pyrazole-3-carbonyl)piperazin-1-yl]-7-oxo-4H,7H-[1,2,4]triazolo[1,5-a]pyrimidin-4-yl]acetamide] |
| 7.30 to 8.30 | CCc1c(N2CCN(C(=O)c3cnn(C)c3)CC2)c(=O)n2nc(-c3cc(OC)ccn3)nc2n1CC(=O)Nc1ccc(C(F)(F)F)cc1Cl [Compound I-69, N-[2-chloro-4-(trifluoromethyl)phenyl]-2-[5-ethyl-2-(4-methoxypyridin-2-yl)-6-[4-(1-methyl-1H-pyrazole-4-carbonyl)piperazin-1-yl]-7-oxo-4H,7H-[1,2,4]triazolo[1,5-a]pyrimidin-4-yl]acetamide] |
| 7.30 to 8.30 | CCc1c(N2CCN(C(=O)c3cnn(C)c3)CC2)c(=O)n2nc(-c3cnc(OC)nc3)nc2n1CC(=O)Nc1ccc(C(F)(F)F)cc1Cl [Compound I-51, N-[2-chloro-4-(trifluoromethyl)phenyl]-2-[5-ethyl-2-(2-methoxypyrimidin-5-yl)-6-[4-(1-methyl-1H-pyrazole-4-carbonyl)piperazin-1-yl]-7-oxo-4H,7H-[1,2,4]triazolo[1,5-a]pyrimidin-4-yl]acetamide] |
| 7.30 to 8.30 | CCc1c(N2CCN(C(=O)c3nsnc3O)CC2)c(=O)n2nc(C3=CCOCC3)nc2n1CC(=O)Nc1ccc(C(F)(F)F)cc1Cl [Compound I-27, N-[2-chloro-4-(trifluoromethyl)phenyl]-2-[2-(3,6-dihydro-2H-pyran-4-yl)-5-ethyl-6-[4-(4-hydroxy-1,2,5-thiadiazole-3-carbonyl)piperazin-1-yl]-7-oxo-4H,7H-[1,2,4]triazolo[1,5-a]pyrimidin-4-yl]acetamide] |
| 7.30 to 8.30 | CCc1c(N2CCN(C(=O)c3ncnn3C)CC2)c(=O)n2nc(-c3ccnc(OC)c3)nc2n1CC(=O)Nc1ccc(C(F)(F)F)cc1Cl [Compound I-79, N-[2-chloro-4-(trifluoromethyl)phenyl]-2-[5-ethyl-2-(2-methoxypyridin-4-yl)-6-[4-(1-methyl-1H-1,2,4-triazole-5-carbonyl)piperazin-1-yl]-7-oxo-4H,7H-[1,2,4]triazolo[1,5-a]pyrimidin-4-yl]acetamide] |
| 7.30 to 8.30 | CCc1c(N2CCN(C(=O)c3c(C)nn(C)c3C)CC2)c(=O)n2nc(-c3ccnc(OC)c3)nc2n1CC(=O)Nc1ccc(C(F)(F)F)cc1Cl [Compound I-50, N-[2-chloro-4-(trifluoromethyl)phenyl]-2-[5-ethyl-2-(2-methoxypyridin-4-yl)-7-oxo-6-[4-(1,3,5-trimethyl-1H-pyrazole-4-carbonyl)piperazin-1-yl]-4H,7H-[1,2,4]triazolo[1,5-a]pyrimidin-4-yl]acetamide] |
| 7.30 to 8.30 | CCc1c(N2CCN(C(=O)c3ccnc(OC)c3O)CC2)c(=O)n2nc(-c3ccnc(OC)c3)nc2n1CC(=O)Nc1ccc(C(F)(F)F)cc1Cl [Compound I-80, N-[2-chloro-4-(trifluoromethyl)phenyl]-2-{5-ethyl-6-[4-(3-hydroxy-2-methoxypyridine-4-carbonyl)piperazin-1-yl]-2-(2-methoxypyridin-4-yl)-7-oxo-4H,7H-[1,2,4]triazolo[1,5-a]pyrimidin-4-yl}acetamide] |
| 7.30 to 8.30 | CCc1c(N2CCN(C(=O)c3c(F)cccc3F)CC2)c(=O)n2nc(C3=CCOCC3)nc2n1CC(=O)Nc1ccc(C(F)(F)F)cc1Cl [Compound I-10, N-[2-chloro-4-(trifluoromethyl)phenyl]-2-{6-[4-(2,6-difluorobenzoyl)piperazin-1-yl]-2-(3,6-dihydro-2H-pyran-4-yl)-5-ethyl-7-oxo-4H,7H-[1,2,4]triazolo[1,5-a]pyrimidin-4-yl}acetamide] |
| 7.30 to 8.30 | CCc1c(N2CCN(C(=O)c3cnn(C4CC4)c3)CC2)c(=O)n2nc(-c3ccnc(OC)c3)nc2n1CC(=O)Nc1ccc(C(F)(F)F)cc1Cl [Compound I-60, N-[2-chloro-4-(trifluoromethyl)phenyl]-2-{6-[4-(1-cyclopropyl-1H-pyrazole-4-carbonyl)piperazin-1-yl]-5-ethyl-2-(2-methoxypyridin-4-yl)-7-oxo-4H,7H-[1,2,4]triazolo[1,5-a]pyrimidin-4-yl}acetamide] |
